Data published in US20050214412A1, “APPARATUS AND METHOD FOR DELIVERING NUTRITIONAL SUPPLEMENTS WITH BEVERAGE SWEETENERS” (priority 2004, published 2005).

Experiment: Proton NMR stability check in deuterium oxide after heating and after sunlight exposure
Assay type: physicochemical
Conditions: with table sugar, Equal, Sweet'N Low and Splenda
Procedure: All ^1H NMR spectra were obtained on a Varian Mercury 300 NMR spectrometer operating at ambient temperature. Solutions were prepared in deuterium oxide solvent (isotopically labeled water). Samples were prepared by dissolving a measured amount of solid in sufficient solvent to produce a total volume of approximately 1 mL. Initial samples were prepared just before spectra were obtained in order to minimize possible premature hydrolysis or attack by microbes in the case of sugar solutions. Samples were later re-examined after heating at 70.0 to 92.0° C. (158 to 198° F.) for 98 minutes and then again after being stored outside on the roof exposed to Central Florida sunlight and heat for 47.3 hours.

O=C1O[C@H]([C@@H](O)CO)C(O)=C1O [Vit. C, ascorbic acid]
chemical compatibility with sweeteners: chemically compatible
